The term IC50 denotes the concentration needed to halve the response being measured. A lower IC50 goes with greater potency in that assay.

Drawing on US20250382296A1, “NITROGEN-CONTAINING FUSED THREE RING PRMT5 INHIBITOR, AND PREPARATION METHOD THEREFOR AND PHARMACEUTICAL USE THEREOF” (Abbisko Therapeutics Co., Ltd., priority 2022, published 2025), this text covers IC50 and Selectivity for 25 molecules.

Each structure is given as a SMILES string.

Assay [1] relates to HCT 116 wild-type MTAP cells. Description: Inhibition of proliferation of HCT116 wild-type MTAP cells (CellTiter-Glo, 6 days). It is filed as cell-based. The note with it: Homo sapiens, HCT-116, 144 h. The procedure: (§1) 1. HCT 116 MTAP-knockout cells and HCT 116 wild-type MTAP cells were plated in 96-well flat-bottom plates and cultured overnight at 37° C. and […] in McCoy's 5A medium containing 10% fetal bovine serum+1% penicillin-streptomycin.
(§2) 2. The next day, compounds were each dissolved in DMSO, diluted successively with DMSO and medium and then transferred to cell plates; the final concentration of each compound was 10 μM, 4-fold dilution was performed to obtain 9 concentration points, and a DMSO control was provided.
(§3) 3. Cells not treated with compound were subjected to CellTiter-Glo Luminescent Cell Viability Assay (Promega) to detect the cell viability, and reference was made to the kit instructions for the operation; the plates were then placed on an EnVision Multilabel Reader to detect luminescence signals.
(§4) 4. Meanwhile, the cell plates containing cells treated with compounds were cultured continuously at 37° C. and […] CO2 for 6 days.
(§5) 5. Then, the cell viability was also detected by CellTiter-Glo.
(§6) 6. Finally, dose response curves were plotted using the four parameter dose response curve module of GraphPad Prism v 9.2.0 software and proliferation inhibition IC50 (unit: nM) was calculated.
(In ATP-based viability assays light output follows the ATP content of the culture.)

The test system of assay [2] is HCT 116 MTAP-knockout cells. Description: Inhibition of proliferation of HCT116 MTAP-knockout cells (CellTiter-Glo, 6 days). Type of assay: cell-based, human. The conditions noted are these: for IC50: Homo sapiens, HCT-116, 144 h, proliferation inhibition, HCT116 MTAP-knockout, 6 days, CellTiter-Glo; for Selectivity: IC50 HCT116 wild-type cells / IC50 HCT116 MTAP-knockout cells. The procedure: as §1, §2, §3, §4, §5, §6

On to `C[C@H](c1ncccn1)N(Cc1ccc(C(F)(F)F)cn1)C(=O)c1ccc2nc(N)c3c(cnn3C)c2c1` [Comparative compound 1, reference compound], for which the IC50 in assay [1] was determined as 42.7 nM; in assay [2] it was 16.3 nM. For the same molecule, the Selectivity in assay [2] was determined as 2.6.
As to `CC(c1ncccn1)N(Cc1ccc(C(F)(F)F)cn1)C(=O)c1ccc2nc(N)c3[nH]ncc3c2c1` (stereo not drawn) [Comparative compound 2, reference compound], the IC50 was found to be 78.3 nM in assay [1] and 35.5 nM in assay [2]. The Selectivity in assay [2] was 2.2.
`CC(C1CC1)N(Cc1ccc(C(F)(F)F)cn1)C(=O)c1ccc2nc(N)c3cnn(C)c3c2c1` (stereo not drawn) [Comparative compound 3, reference compound] yielded an IC50 in assay [1] of 96 nM. In assay [2], this molecule showed an IC50 of 6 nM and a Selectivity of 16.
Consider `C[C@H](c1ncccn1)N(Cc1ccc(C(F)(F)F)cn1)C(=O)c1ccc2nc(N)c3cnn(C)c3c2c1` [Comparative compound 4, reference compound], for which the IC50 in assay [1] is 85 nM; in assay [2] it was 6 nM. The Selectivity in assay [2] is 14.2.
The matching figures for `Cc1ncc2c(N)nc3ccc(C(=O)N(Cc4ccc(C(F)(F)F)cn4)[C@H](C)c4ncccn4)cc3n12` [Example 1, (R)-4-amino-1-methyl-N-(1-(pyrimidin-2-yl)ethyl)-N-((5-(trifluoromethyl)pyridin-2-yl)methyl)imidazo[1,5-a]quinoxaline-8-carboxamide]: 1500 nM, 29 nM and 51.7.
As for `Cc1ncc2c(N)nc3cc(F)c(C(=O)N(c4cnn(C)c4)[C@@H]4COc5cc(C(F)(F)F)ccc54)cc3n12` [Example 2, (S)-4-amino-7-fluoro-1-methyl-N-(1-methyl-1H-pyrazol-4-yl)-N-(6-(trifluoromethyl)-2,3-dihydrobenzofuran-3-yl)imidazo[1,5-a]quinoxaline-8-carboxamide], the IC50 in assay [1] came out at 207 nM. Moreover, in assay [2], the IC50 was determined as 5 nM and the Selectivity worked out at 41.4.
As for `C[C@H](c1ncccn1)N(Cc1ccc(C(F)(F)F)cn1)C(=O)c1ccc2nc(N)c3cncn3c2c1` [Example 3, (R)-4-amino-N-(1-(pyrimidin-2-yl)ethyl)-N-((5-(trifluoromethyl)pyridin-2-yl)methyl)imidazo[1,5-a]quinoxaline-8-carboxamide], the results for the IC50 in assay [1] and in assay [2] were 166 nM and 8 nM, respectively. Besides, the Selectivity in assay [2] came to 20.8.
`C[C@@H]1COC[C@H](c2ccc(C(F)(F)F)cn2)N1C(=O)c1ccc2nc(N)c3cncn3c2c1` [Example 14a, (4-aminoimidazo[1,5-a]quinoxalin-8-yl)((3R,5S)-3-methyl-5-(5-(trifluoromethyl)pyridin-2-yl)morpholino)methanone] showed an IC50 in assay [1] of 2060 nM. In addition, in assay [2], the IC50 amounted to 55 nM and the Selectivity came to 37.4.
Take `Nc1nc2ccc(C(=O)N(CC3CC3)C3CCc4cc(C(F)(F)F)ccc43)cc2n2cncc12` (stereo not drawn) [Example 22, 4-amino-N-(cyclopropylmethyl)-N-(5-(trifluoromethyl)-2,3-dihydro-1H-inden-1-yl)imidazo[1,5-a]quinoxaline-8-carboxamide]: the IC50 in assay [1] stood at 5480 nM. In assay [2], this molecule registered an IC50 of 154 nM and a Selectivity of 35.6.
The matching figures for `Cn1cc(N(C(=O)c2ccc3nc(N)c4cncn4c3c2)C2COc3cc(C(F)(F)F)ccc32)cn1` (stereo not drawn) [Example 30, 4-amino-N-(1-methyl-1H-pyrazol-4-yl)-N-(6-(trifluoromethyl)-2,3-dihydrobenzofuran-3-yl)imidazo[1,5-a]quinoxaline-8-carboxamide]: 725 nM, 12 nM and 60.4.
In turn, `Cn1cc(N(C(=O)c2ccc3nc(N)c4cncn4c3c2)[C@@H]2COc3cc(C(F)(F)F)ccc32)cn1` [Example 30a, (S)-4-amino-N-(1-methyl-1H-pyrazol-4-yl)-N-(6-(trifluoromethyl)-2,3-dihydrobenzofuran-3-yl)imidazo[1,5-a]quinoxaline-8-carboxamide] registered a half-maximal inhibitory concentration (IC50) in assay [1] of 381 nM. For the same molecule, in assay [2], the IC50 was 4 nM and the Selectivity is listed as 95.3.
In turn, `Nc1nc2ccc(C(=O)N(CC3CC3)[C@@H]3CCc4nc(C(F)(F)F)ccc43)cc2n2cncc12` [Example 34a, (R)-4-amino-N-(cyclopropylmethyl)-N-(2-(trifluoromethyl)-6,7-dihydro-5H-cyclopenta[b]pyridin-5-yl)imidazo[1,5-a]quinoxaline-8-carboxamide] displayed an IC50 in assay [2] of 225 nM.
In assay [2], `Nc1nc2ccc(C(=O)N(CC3CC3)[C@H]3CCc4nc(C(F)(F)F)ccc43)cc2n2cncc12` [Example 34b, (S)-4-amino-N-(cyclopropylmethyl)-N-(2-(trifluoromethyl)-6,7-dihydro-5H-cyclopenta[b]pyridin-5-yl)imidazo[1,5-a]quinoxaline-8-carboxamide] showed an IC50 of 1820 nM.
As for `Nc1nc2ccc(C(=O)N(Cc3ccc(C(F)(F)F)cn3)CC3CC3)cc2n2cncc12` [Example 144, 4-amino-N-(cyclopropylmethyl)-N-((5-(trifluoromethyl)pyridin-2-yl)methyl)imidazo[1,5-a]quinoxaline-8-carboxamide], in assay [1], the concentration for half-maximal inhibition (IC50) amounted to 2060 nM. In assay [2], this molecule displayed an IC50 of 22 nM and a Selectivity of 93.5.
Regarding `CC(C1CC1)N(Cc1ccc(C(F)(F)F)cn1)C(=O)c1ccc2nc(N)c3cncn3c2c1` (stereo not drawn) [Example 145, 4-amino-N-(1-cyclopropylethyl)-N-((5-(trifluoromethyl)pyridin-2-yl)methyl)imidazo[1,5-a]quinoxaline-8-carboxamide], the IC50 in assay [1] was determined as 1080 nM; in assay [2], 24 nM. For the same molecule, in assay [2], the Selectivity worked out at 44.8.
In assay [1], `CN(Cc1ccc(C(F)(F)F)cn1)C(=O)c1ccc2nc(N)c3cncn3c2c1` [Example 146, 4-amino-N-methyl-N-((5-(trifluoromethyl)pyridin-2-yl)methyl)imidazo[1,5-a]quinoxaline-8-carboxamide] returned an IC50 of over 10000 nM. In assay [2], this molecule yielded a 50% inhibitory concentration (IC50) of 224 nM and a Selectivity of over 44.6.
In the case of `Nc1nc2ccc(C(=O)N(Cc3ccc(C(F)(F)F)cn3)C3CCC3)cc2n2cncc12` [Example 147, 4-amino-N-cyclobutyl-N-((5-(trifluoromethyl)pyridin-2-yl)methyl)imidazo[1,5-a]quinoxaline-8-carboxamide], the concentration for half-maximal inhibition (IC50) in assay [1] came out at 4990 nM. In assay [2], inhibition was half-maximal at 115 nM (IC50) and the Selectivity amounted to 43.4.
In assay [1], `Nc1nc2ccc(C(=O)N(Cc3ccc(C(F)(F)F)cn3)CC(F)(F)F)cc2n2cncc12` [Example 148, 4-amino-N-(2,2,2-trifluoroethyl)-N-((5-(trifluoromethyl)pyridin-2-yl)methyl)imidazo[1,5-a]quinoxaline-8-carboxamide] came in with an IC50 of over 10000 nM. In assay [2], this molecule gave a 50% inhibitory concentration (IC50) of 202 nM and a Selectivity of over 49.5.
The molecule `Nc1nc2ccc(C(=O)N(Cc3ccc(OC(F)(F)F)cn3)CC3CC3)cc2n2cncc12` [Example 158, 4-amino-N-(cyclopropylmethyl)-N-((5-(trifluoromethoxy)pyridin-2-yl)methyl)imidazo[1,5-a]quinoxaline-8-carboxamide] registered an IC50 in assay [2] of 68 nM.
In the case of `Nc1nc2ccc(C(=O)N(CC3CC3)[C@H]3COc4nc(C(F)(F)F)ccc43)cc2n2cncc12` [Example 181b, (R)-4-amino-N-(cyclopropylmethyl)-N-(6-(trifluoromethyl)-2,3-dihydrofuro[2,3-b]pyridin-3-yl)imidazo[1,5-a]quinoxaline-8-carboxamide], the IC50 in assay [2] came to 3130 nM.
`CC(c1ccc(C(F)(F)F)cn1)N(CC1CC1)C(=O)c1ccc2nc(N)c3cncn3c2c1` (stereo not drawn) [Example 203, 4-amino-N-(cyclopropylmethyl)-N-(1-(5-(trifluoromethyl)pyridin-2-yl)ethyl)imidazo[1,5-a]quinoxaline-8-carboxamide] registered a half-maximal inhibitory concentration (IC50) in assay [2] of 155 nM.
The molecule `CN(C(=O)c1ccc2nc(N)c3cncn3c2c1)C1COc2nc(C(F)(F)F)ccc21` (stereo not drawn) [Example 204, 4-amino-N-methyl-N-(6-(trifluoromethyl)-2,3-dihydrofuro[2,3-b]pyridin-3-yl)imidazo[1,5-a]quinoxaline-8-carboxamide] displayed an IC50 in assay [2] of 238 nM.
With `Cn1cc(N(C(=O)c2ccc3nc(N)c4cncn4c3c2)[C@@H]2COc3nc(C(F)(F)F)ccc32)cn1` [Example 205a, (S)-4-amino-N-(1-methyl-1H-pyrazol-4-yl)-N-(6-(trifluoromethyl)-2,3-dihydrofuro[2,3-b]pyridin-3-yl)imidazo[1,5-a]quinoxaline-8-carboxamide], in assay [2], the 50% inhibitory concentration (IC50) was found to be 313 nM.
Take `COCCN(Cc1ccc(C(F)(F)F)cn1)C(=O)c1ccc2nc(N)c3cnc(C)n3c2c1` [Example 224, 4-amino-N-(2-methoxyethyl)-1-methyl-N-((5-(trifluoromethyl)pyridin-2-yl)methyl)imidazo[1,5-a]quinoxaline-8-carboxamide]: in assay [2], half-maximal inhibition (IC50) required 323 nM.
Same read-out and setting: the result for `CN(Cc1ccc(C(F)(F)F)cn1)C(=O)c1cc2c(cc1F)nc(N)c1cccn12` [Example 232, 4-amino-7-fluoro-N-methyl-N-((5-(trifluoromethyl)pyridin-2-yl)methyl)pyrrolo[1,2-a]quinoxaline-8-carboxamide] reads 2240 nM.
